Where only a bound is given, the exact number is not on record here.

This is an account of results in patent US20190075787A1, “COMPOSITIONS AND METHODS FOR CROP DEFENSE” (AdvanSix Resins & Chemicals LLC, priority 2017, published 2019).

For data set [1] the following is noted: general statement, no test described; cited from earlier work.
The conditions of data set [2]: general statement, no test described; cited from earlier work. The source holds these as a separate data set.
Data set [3] in a line: Fungicide comparative solubility: tebuconazole dissolved in each solvent. The class given is physicochemical. The note with it: room temperature; vials of 20, 30, 40 and 50 wt. % tebuconazole. As for the experimental part:
(§1) The solubility of the herbicide saflufenacil was determined for thirteen solvents. Three of the solvents were caprolactam-derived solvents in accordance with this disclosure. The remaining ten were comparative solvents. The solubility of saflufenacil was evaluated for each solvent by preparing four, 2 ml vials containing 20 wt. %, 30 wt. %, 40 wt. % and 50 wt. % of saflufenacil. To prepare the 20 wt. % vial, 0.040 g of saflufenacil was added to 0.160 ml of solvent. To prepare the 30 wt. % vial, 0.060 g of saflufenacil was added to 0.140 ml of solvent. To prepare the 40 wt. % vial, […] of saflufenacil was added to 0.120 ml of solvent. To prepare the 50 wt. % vial, 0.100 g of saflufenacil was added to 0.100 ml of solvent. The vials were capped and swirled at room temperature until no change in solubility was observed. Test samples including the fungicide tebuconazole were prepared as described above for Example 1 for saflufenacil. […] As in Table 1 above, solvents 1-3 are in accordance with the present disclosure and solvents 4-13 are comparative solvents.

A short description of data set [4]: Insecticide comparative solubility: bifenthrin dissolved in each solvent. The class given is physicochemical. The note with it: room temperature; vials of 20, 30, 40 and 50 wt. % bifenthrin.
A short description of data set [5]: Herbicide comparative solubility: saflufenacil dissolved in each solvent. The following applies: room temperature; vials of 20, 30, 40 and 50 wt. % saflufenacil. The data set is classed as physicochemical. As for the experimental part:
as §1, with “observed.” for “observed. Test samples including the fungicide tebuconazole were prepared as described above for Example 1 for saflufenacil.”, “Solvents” for “As in Table 1 above, solvents”, “disclosure. Solvents” for “disclosure and solvents”

A short description of data set [6]: Hansen Solubility Parameters of solvents. The data set is classed as physicochemical. The source says: As is known in the art, Hansen Solubility Parameters can be used to predict the effectiveness of a solvent. […] Thus, one skilled in the art would not expect the caprolactam-derived solvents to be as effective as NMP and other commonly used solvents.

As for `CN1CCCCCC1=O` [Solvent 1, N-methylcaprolactam], in data set [1], the reproductive toxin result was “not considered to be either a reproductive toxin or a carcinogen”. Besides, the carcinogen entry in data set [2] was “not considered to be either a reproductive toxin or a carcinogen”.
Consider `CN1CCCCCC1=O` [Solvent 1], for which the “maximum weight percentage of tebuconazole dissolved in each solvent” value in data set [3] stood at 50%. In data set [4], the “maximum weight percentage of bifenthrin dissolved in each solvent” value is recorded as 40%. Further, the “maximum weight percentage of saflufenacil dissolved in each solvent” value in data set [5] was found to be 40%.
With `CCN1CCCCCC1=O` [Solvent 2], the “maximum weight percentage of tebuconazole dissolved in each solvent” value in data set [3] worked out at 50%. For the same compound, the “maximum weight percentage of bifenthrin dissolved in each solvent” value in data set [4] is listed as 50%. For the same compound, in data set [5], the “maximum weight percentage of saflufenacil dissolved in each solvent” value was found to be 30%.
For `CCCCN1CCCCCC1=O` [Solvent 3], the “maximum weight percentage of tebuconazole dissolved in each solvent” value in data set [3] came out at 40%. In data set [4], the “maximum weight percentage of bifenthrin dissolved in each solvent” value is reported as 40%. Further, in data set [5], the “maximum weight percentage of saflufenacil dissolved in each solvent” value is given as 20%.
For the compound `CN1CCCC1=O` [Solvent 4, N-methyl-2-pyrrolidone], the reproductive toxin entry in data set [1] is “has been found to be a reproductive toxin”.
Consider `CN1CCCC1=O` [Solvent 4], for which, in data set [3], the “maximum weight percentage of tebuconazole dissolved in each solvent” value was determined as 50%. Further, the “maximum weight percentage of bifenthrin dissolved in each solvent” value in data set [4] stood at 50%. For the same compound, the “maximum weight percentage of saflufenacil dissolved in each solvent” value in data set [5] came to 50%.
As for `CCCCN1CCCC1=O` [Solvent 5], the “maximum weight percentage of tebuconazole dissolved in each solvent” value in data set [3] was found to be 40%. The “maximum weight percentage of bifenthrin dissolved in each solvent” value in data set [4] turned out to be 50%. In addition, the “maximum weight percentage of saflufenacil dissolved in each solvent” value in data set [5] is reported as 30%.
As for `CCCCCCCCCC(=O)N(C)C` [Solvent 6], the “maximum weight percentage of tebuconazole dissolved in each solvent” value in data set [3] was found to be 30%. Also, in data set [4], the “maximum weight percentage of bifenthrin dissolved in each solvent” value was determined as 30%. The “maximum weight percentage of saflufenacil dissolved in each solvent” value in data set [5] came out at 30%.
Consider `COC(=O)CCCCC(=O)N(C)C` [Solvent 7, N,N-dimethyladipamide methyl ester], for which, in data set [6], the “Hansen Solubility Parameters: Dispersion” value was determined as 17.2, the “Hansen Solubility Parameters: Hydrogen Bonding” value was determined as 9.3 and the “Hansen Solubility Parameters: Polarity” value is 9.7.
For the compound `O=C1CCCCC1` [Solvent 9], the “maximum weight percentage of tebuconazole dissolved in each solvent” value in data set [3] was found to be 40%. The “maximum weight percentage of bifenthrin dissolved in each solvent” value in data set [4] is listed as 50%. Moreover, the “maximum weight percentage of saflufenacil dissolved in each solvent” value in data set [5] is listed as below 20%.
For `N#CCCN1CCCCCC1=O` [Solvent 13], in that order: below 20%, below 20% and below 20%.
With `O=C1CCCCCN1` [caprolactam], in data set [1], the reproductive toxin entry was “has not been found to be, and is not expected to be, either a reproductive toxin or a carcinogen”. Moreover, in data set [2], the carcinogen entry was “has not been found to be, and is not expected to be, either a reproductive toxin or a carcinogen”.
As to `CC1=CC(=O)CC(C)(C)C1` [isophorone], the carcinogen result in data set [2] is given as “suspected carcinogen”.
